Experimental data as given in article PMC9077470 (RSC Advances, 2018).
≈ marks a conversion by molar mass, not a printed value.

Experiments:
[1] = Partition coefficients in n-octanol/phosphate buffer (pH 7.4); format: physicochemical; settings: means ± SD, n = 3
Protocol: The phosphate buffer and octanol were mutually saturated at 20–22 °C before use. Samples were dissolved in the aqueous phase and the n-octanol/phosphate buffer mixtures were shaken for 24 h to reach a distribution equilibrium. The volumes of each phase were chosen so that the solute concentration in the aqueous phase, before and after distribution, could readily be measured using HPLC method. The partition coefficients (P) were calculated from the following equation: [drawing 1] where Ci and Cw represent the solute concentrations in the aqueous buffer phase before and after distribution, respectively, Vw represents the volume of the aqueous phase, and Vo is the volume of the octanol phase.[16]

[2] = no reference given; cited from earlier work
[3] = test system: TNBS-induced experimental colitis; test: TNBS-induced colitis: disease activity index (DAI); format: in vivo, mice; settings: vs positive control (5-ASA + sodium butyrate)
Protocol: Colitis was induced according to the previous study.[18,19] Briefly, after 12 h of fasting, mice were anesthetized with intraperitoneal pentobarbital sodium (35 mg kg^-1) before the induction of colitis. 0.1 mL of 50% (v/v) ethanol contained 2.5% (v/v) TNBS was instilled into the colon 3.5-4 cm from the anus by a gavage needle. The mice were kept in a head-down position for 30 s to prevent leakage of the intracolonic instillation. Mice in the control group received normal saline instead of TNBS solution, a physical mixture of 5-ASA and sodium butyrate was used as the positive control. […] The treatments were given once daily for 5 continuous days starting 24 hours after the induction of colitis. DAI is ranged from 0 to 4 and it is the sum of scores given for body weight loss, stool consistency and presence or absence of fecal blood. The fecal occult blood of mice was evaluated by the ο-tolidine method.[22] A small amount of feces samples were smeared on a white plate. 2-3 drops of ο-tolidine solution (10 g L^-1, dissolved in acetic acid) were added into samples and mixed evenly. Then 2-3 drops of 3% H2O2 solution were added into the mixture, meanwhile, start the time and observe immediately. Scored as: normal, weak positive, green to light green developing over 2 min; +, positive, greenish-blue to deep green developing within 1 min; ++, positive, blue to bluish-green developing within 5-20 s; +++, very strong positive, intense blue color developing immediately.[23]

[4] = Aqueous solubility (equilibrium, distilled water); format: physicochemical; settings: 25 °C, thermodynamic from solid, 25 ± 2 °C, means ± SD, n = 3, read-out: S (aqueous solubility)
Protocol: The mixtures were placed in an ultrasonic water bath for 10 min and then shaken for 24 h to establish a saturation equilibrium. Upon filtration, the filtrate was diluted with an appropriate amount of water and the mixture was analyzed by HPLC, the concentration of each compound in its saturated solution was calculated.

[5] = In vitro incubation with small intestine contents of rats; format: in vitro ADME; settings: rat small intestine contents homogenate, pH 6.8, 37 °C, after 4 h of incubation
Protocol: (§1) After anesthetized with diethyl ether, rats were sacrificed and their contents of stomach and small intestine were collected and homogenized respectively, the homogenate was diluted with buffer solution (pH 1.2 for stomach contents, pH 6.8 for small intestine contents) to 20% (w/v). […] After 0.25, 0.5, 1.0, 1.5, 2.0, 3.0 and 4.0 h of incubation, 200 μL of samples were collected and replaced with the same volume of blank homogenate, then samples were centrifuged at 13 000 rpm for 5 min, filtered with membrane filter, and analyzed by HPLC. The residual contents of each prodrug in homogenate were calculated and the hydrolysis curves were drawn.

[6] = test system: SOD, MDA, GSH, GSH-Px in colonic tissues; test: TNBS-induced colitis: levels of SOD, MDA, GSH and GSH-Px in colonic tissues; format: in vivo, mice; settings: vs TNBS group, p < 0.01
Protocol: Colitis was induced according to the previous study.[18,19] Briefly, after 12 h of fasting, mice were anesthetized with intraperitoneal pentobarbital sodium (35 mg kg^-1) before the induction of colitis. 0.1 mL of 50% (v/v) ethanol contained 2.5% (v/v) TNBS was instilled into the colon 3.5-4 cm from the anus by a gavage needle. The mice were kept in a head-down position for 30 s to prevent leakage of the intracolonic instillation. Mice in the control group received normal saline instead of TNBS solution, a physical mixture of 5-ASA and sodium butyrate was used as the positive control. […] The treatments were given once daily for 5 continuous days starting 24 hours after the induction of colitis. Colon tissue samples were homogenized with normal saline, the homogenate (10%, w/w) was centrifuged at 13 000 rpm for 15 min, and the resulting supernatant was diluted to 1% (w/w) for further assay. The protein levels of the colon homogenate were detected by a BCA protein assay kit. Then the activities of SOD and GSH-Px, and the levels of MDA and GSH of samples in each group were measured by the assay kits according to the provider's instructions.

[7] = In vivo incubation in the colon of rats; settings: injected into tied rat colon, 6 h
Protocol: 6 hours later, rats were sacrificed and their colon contents were separated and homogenized in 40 mL of phosphate buffer (pH 7.4). The homogenate was sonicated for 5 min and centrifuged at 13 000 rpm for 5 min, then 0.2 mL of the supernatant was collected and mixed with 0.8 mL of methanol. Finally, samples were centrifuged, filtered and analyzed by HPLC. The residual contents of each prodrug in colon contents were calculated, and the hydrolysis ratio was calculated by the following equation: [drawing 2] where Wr is the residual amount of prodrugs in the colon contents and Wi is the initial amount of prodrugs that administered to rats.

[8] = test system: TNBS-induced experimental colitis; test: TNBS-induced colitis: body weight, survival rates, overall effect; format: in vivo, mice; settings: TNBS colitis mice; Ols-DB as enema, others i.g.
Protocol: Colitis was induced according to the previous study.[18,19] Briefly, after 12 h of fasting, mice were anesthetized with intraperitoneal pentobarbital sodium (35 mg kg^-1) before the induction of colitis. 0.1 mL of 50% (v/v) ethanol contained 2.5% (v/v) TNBS was instilled into the colon 3.5-4 cm from the anus by a gavage needle. The mice were kept in a head-down position for 30 s to prevent leakage of the intracolonic instillation. Mice in the control group received normal saline instead of TNBS solution, a physical mixture of 5-ASA and sodium butyrate was used as the positive control. […] The treatments were given once daily for 5 continuous days starting 24 hours after the induction of colitis. After the induction of colitis, the body weight of each mice was recorded daily, and the curves of weight changes for each group were drawn to evaluate the TNBS-induced colitis. Meanwhile, the death of mice in each group was recorded daily and the final survival rates of mice were calculated.

[9] = test system: MPO activity in colonic tissues; test: TNBS-induced colitis: MPO activity in colonic tissues; format: in vivo, mice
Protocol: Colitis was induced according to the previous study.[18,19] Briefly, after 12 h of fasting, mice were anesthetized with intraperitoneal pentobarbital sodium (35 mg kg^-1) before the induction of colitis. 0.1 mL of 50% (v/v) ethanol contained 2.5% (v/v) TNBS was instilled into the colon 3.5-4 cm from the anus by a gavage needle. The mice were kept in a head-down position for 30 s to prevent leakage of the intracolonic instillation. Mice in the control group received normal saline instead of TNBS solution, a physical mixture of 5-ASA and sodium butyrate was used as the positive control. […] The treatments were given once daily for 5 continuous days starting 24 hours after the induction of colitis. […] Samples were freeze-thawed three times, after which sonication was repeated. Homogenates were then centrifuged at 13 000 rpm for 30 min and MPO was extracted from the resulting supernatant.[25] MPO activity was measured by the assay kit according to its provider's instructions.

[10] = In vitro incubation with stomach contents of rats; format: in vitro ADME; settings: rat stomach contents homogenate, pH 1.2, 37 °C, after 2 h of incubation
Protocol: as §1

Row | Compound | P (partition coefficient) [1] | logP at 24 h [1] | half-time (t1/2) [2] | DAI, compared with positive control [3] | solubility at 24 h [4] | residual content of prodrug in small intestine contents [5] | GSH-Px activities in the colon [6] | MDA levels in the colon [6] | SOD activities in the colon [6] | hydrolysis ratio after in vivo incubation in rat colons [7] | therapeutic effects on the TNBS-induced UC (overall) [8] | MPO activity in colonic tissues ([9]; vs TNBS group, p < 0.01) | MPO activity, compared with positive control ([9]; vs positive control) | residual content of prodrug in stomach contents [10]
1 | Nc1ccc(O)c(C(=O)O)c1 [5-ASA, 5-aminosalicylic acid, reference compound] | 4.47 ± 0.21 | 0.65 ± 0.02 |  |  |  |  |  |  |  |  |  |  |  | 
2 | CCCC(=O)O [Butyrate] |  |  | 6 min |  |  |  |  |  |  |  |  |  |  | 
3 | CCCC(=O)Oc1ccc(N)cc1C(=O)O [5-ASB, 5-aminosalicylic acid butyrate] | 1.45 ± 0.10 | 0.16 ± 0.03 |  | better effects than the positive control | 310 ± 50 mg/mL (≈ 1390 mM) | 100% | increased | significantly decreased | increased | 6.79% | certain therapeutic effects | significantly decreased | significantly better than the positive control | hardly hydrolyzed
